From the NIST ThermoML archive (doi:10.1021/je7003963)
± gives the expanded uncertainty stated by the source.

Assay: mn = molality of the nth substance listed, in mol/kg
Conditions: 293.15 K; for speed of sound / mass density: 101 kPa, Liquid; for speed of sound: Sing-around technique in a fixed-path interferometer; for mass density: Vibrating tube method

CN1CCN(CCCN2c3ccccc3Sc3ccc(C(F)(F)F)cc32)CC1.Cl.Cl [trifluoperazine dihydrochloride] + O
Conditions	mass density [kg/m3]	speed of sound [m/s]	surface tension liquid-gas [mN/m]
m1 = 0.003	–	–	58.1 ± 2
m1 = 0.004	–	–	55.1 ± 1.9
m1 = 0.005	–	–	51.4 ± 1.8
m1 = 0.006	–	–	51.1 ± 1.8
m1 = 0.007	–	–	49.6 ± 1.7
m1 = 0.0079	999.369 ± 0.27	1484.1 ± 1.2	–
m1 = 0.008	–	–	47.7 ± 1.6
m1 = 0.00895	999.513 ± 0.27	1484.3 ± 1.2	–
m1 = 0.009	–	–	47.7 ± 1.6
m1 = 0.01	–	–	46.5 ± 1.6
m1 = 0.011	999.803 ± 0.28	1484.7 ± 1.2	–
m1 = 0.01547	1000.45 ± 0.28	1485.5 ± 1.3	–
m1 = 0.02109	1001.24 ± 0.28	1486.4 ± 1.3	–
m1 = 0.025	–	–	46 ± 1.6
m1 = 0.0286	1002.31 ± 0.29	1487.8 ± 1.3	–
m1 = 0.03996	1003.91 ± 0.3	1489.8 ± 1.3	–
m1 = 0.0492	1005.18 ± 0.3	1491.3 ± 1.3	–
m1 = 0.05	–	–	46.5 ± 1.6
m1 = 0.06004	1006.67 ± 0.31	1493 ± 1.3	–
m1 = 0.075	–	–	45.9 ± 1.6
m1 = 0.07991	1009.39 ± 0.33	1496.2 ± 1.4	–
m1 = 0.09979	1012.03 ± 0.34	1498.3 ± 1.4	–
m1 = 0.1	–	–	46.6 ± 1.6
m1 = 0.1248	1015.25 ± 0.36	1500.6 ± 1.4	–
m1 = 0.125	–	–	46.5 ± 1.6
m1 = 0.1496	1018.45 ± 0.38	1502.9 ± 1.4	–
m1 = 0.15	–	–	45.9 ± 1.6
m1 = 0.1737	1021.45 ± 0.4	1505.1 ± 1.5	–
m1 = 0.1994	1024.63 ± 0.43	1507.3 ± 1.5	–
m1 = 0.2245	1027.65 ± 0.45	1509.5 ± 1.6	–
m1 = 0.2494	1030.56 ± 0.47	1511.7 ± 1.6	–
m1 = 0.2749	1033.52 ± 0.5	1513.6 ± 1.6	–
m1 = 0.2998	1036.3 ± 0.52	1515.8 ± 1.6	–

Cl.Cl.OCCN1CCN(CCCN2c3ccccc3Sc3ccc(C(F)(F)F)cc32)CC1 [fluphenazine dihydrochloride] + O
Conditions	mass density [kg/m3]	speed of sound [m/s]	surface tension liquid-gas [mN/m]
m1 = 0.001	–	–	59.1 ± 2
m1 = 0.002	–	–	57.9 ± 2
m1 = 0.003	–	–	54.5 ± 1.9
m1 = 0.004	–	–	51.1 ± 1.8
m1 = 0.005	–	–	49 ± 1.7
m1 = 0.006	–	–	49.9 ± 1.7
m1 = 0.00605	999.199 ± 0.28	1484.1 ± 1.2	–
m1 = 0.007	–	–	47.7 ± 1.6
m1 = 0.00716	999.381 ± 0.29	1484.6 ± 1.2	–
m1 = 0.00794	999.509 ± 0.29	1484.8 ± 1.2	–
m1 = 0.008	–	–	45.9 ± 1.6
m1 = 0.00898	999.679 ± 0.29	1485.1 ± 1.2	–
m1 = 0.01001	999.848 ± 0.29	1485.3 ± 1.2	–
m1 = 0.01999	1001.44 ± 0.29	1487.5 ± 1.3	–
m1 = 0.025	–	–	44.3 ± 1.5
m1 = 0.02935	1002.91 ± 0.3	1489.3 ± 1.3	–
m1 = 0.04	1004.55 ± 0.31	1491.5 ± 1.3	44.6 ± 1.6
m1 = 0.0506	1006.17 ± 0.32	1492.8 ± 1.3	–
m1 = 0.05999	1007.59 ± 0.32	1494.4 ± 1.3	–
m1 = 0.075	–	–	44 ± 1.5
m1 = 0.0803	1010.64 ± 0.34	1496.9 ± 1.4	–
m1 = 0.1	1013.53 ± 0.36	1499 ± 1.4	44.5 ± 1.6
m1 = 0.1248	1017.05 ± 0.38	1501.5 ± 1.4	–
m1 = 0.125	–	–	44.1 ± 1.5
m1 = 0.149	1020.45 ± 0.4	1503.8 ± 1.5	–
m1 = 0.15	–	–	44.6 ± 1.6
m1 = 0.1752	1023.98 ± 0.43	1506.3 ± 1.5	–
